Test results reported in US20100196355A1, “Immunophilin Ligands and Methods for Modulating Immunophilin and Calcium Channel Activity” (Wyeth, priority 2007, published 2010).

Tests used:
cortical neurons = assay: Neurite outgrowth in cortical neurons; assay type: cell-based, rat; conditions: siRNA-transfected rat cortical neurons, 24 h; control lamin A/C siRNA
Protocol: Cortical neurons were fixed using 2% paraformaldehyde for 5 min followed by 4% paraformaldehyde for 5 min. Cells were incubated in blocking solution (0.2% Triton-X+1.5% normal goat serum in PBS) followed by primary (anti-neuronal class III β-tubulin (TUJ1) (Covance Innovative Antibodies, Berkeley, Calif.) and secondary antibody (Alexa Fluor 488 goat anti-mouse) (Molecular Probes, Carlsbad, Calif.). Each step was performed at room temperature for 1 hr. Total neurite outgrowth for each condition was analyzed using the Neuronal Profiling Bioapplication on an ArrayScan HCS Reader (Cellomics, Pittsburgh, Pa.).
(§1) Briefly, cortical neuron cultures were prepared from embryonic day 15 (E15) rat embryos (Sprague-Dawley, Charles River Laboratories, Wilmington, Mass.). The embryos were collected, their brains were removed, and the cortices were dissected out in ice-cold phosphate-buffered saline (PBS) without Ca^2+ and Mg^2+. Dissected pieces of cortical tissue were pooled together and transferred to an enzymatic dissociation media containing 20 IU/ml papain in Earle's balanced salt solution (Worthington Biochemical, Freehold, N.J.) and incubated for 30 min at 37° C. After enzymatic dissociation, the papain solution was aspirated and the tissue mechanically triturated with a fire-polished Pasteur pipette in complete media [Neurobasal Medium with B-27 supplement (Gibco, Grand Island, N.Y.), 100 IU/ml penicillin, 100 μg/ml streptomycin, 3.3 μg/ml aphidicolin, 0.5 mM glutamate] containing 2,000 IU/ml DNase and 10-mg/ml ovomucoid protease inhibitor.

[1] = tested on: cultured rat cortical neurons; assay: Neuronal survival assay (neurofilament ELISA); assay type: cell-based; conditions: siRNA-transfected rat cortical neurons; neurofilament ELISA
Protocol: Cultures were fixed for 30 min with 4% paraformaldehyde at 37° C. Nonspecific binding was blocked by incubating with PBS containing 0.3% Triton X-100 and 5% fetal bovine serum (FBS) for 45 min. Cultures were then incubated overnight at 4° C. with an anti-neurofilament (200 kD) monoclonal antibody (1:1000, clone RT-97, Chemicon, Temecula, Calif.). After washing, a peroxidase-conjugated secondary antibody (1:1000, Vector Labs, Burlingame, Calif.) was applied for 2 h. After three washes, the peroxidase substrate K-BlueMax (Neogen, Lexington, Ky.; Young et al., 1999) was added to the cultures and incubated for 10 min on an orbital shaker. The peroxidase substrate is highly soluble in the K-BlueMax solution. Optical density is then readily measured using a Molecular Devices Spectramax Plus colorimetric plate reader at 650
as §1

[2] = tested on: Ca2+ channel in F-11 cells; assay: Whole-cell patch clamp recording of Ca2+ currents in F-11 cells; assay type: cell-based, rat and mouse hybrid; conditions: 5 μM in the bath for 2 hrs
Protocol: The whole-cell configuration of the patch-clamp technique was used to record calcium currents from the cells at room temperature using an EPC-9 amplifier (HEKA, Instrutech Corp.) with the acquisition and analysis program Pulse-PulseFit from HEKA (Lambrecht, Germany). Electrodes were fabricated using a P-87 puller (Sutter Instrument). […] The standard bath recording solution is Ca^2+ and Mg^2+ free HBSS (pH 7.4) containing 10 mM HEPES, 10 mM dextrose, and 4 mM BaCl2. Currents were filtered at 3 kHz, and the inward Ca^2+ currents were recorded from cells held at −90 mV with 10 mV depolarizing steps from −80 mV to 60 mV for 50 ms.

FKBPs = assay: Size exclusion binding of [14C]-1 to purified recombinant protein; set-up: species or system human; conditions: 10 μM
Source text: (§2) Using Gateway cloning methods developed by Invitrogen (Carlsbad, Calif.), cacnb1/CACNB 1, cacnb4/CACNB4fkbp3/FKBP25, fkbp4/FKBP52, ppid, ppif and fkbp8/FKBP38 genes were cloned into the pDEST17 (N-His6 tag) vector. The His6-CACNB1: TGG548TAA were generated from pDEST17-CACNB1 using QuikChange site-directed mutagenesis kit (Stratagene, LaJolla, Calif.). The His6 tagged protein was purified on a Ni-NTA column (Qiagen, Valencia, Calif.).

CACNB4 = target: T1, CACNB4 (Homo sapiens, UniProt O00305); assay: as above; conditions: 10 μM
T1 construct: His6 (N); made in house
Source text: as §2

PPIF = target: T2, PPIF (Homo sapiens, UniProt P30405); assay: as above; conditions: 10 μM
T2 construct: His6 (N); made in house
Source text: as §2

PPID = target: T3, PPID (Homo sapiens, UniProt Q08752); assay: as above; conditions: 10 μM
T3 construct: His6 (N); made in house
Source text: as §2

FKBP38/Ca2+/CaM = target: T4, FKBP38/Ca2+/CaM (Homo sapiens, UniProt Q14318); assay: as above; conditions: 10 μM; 2 mM Ca2+ and 5 μM CaM
T4 construct: His6 (N); made in house
Source text: as §2

His6-CACNB1:TGG548TAA = target: T5, His6-CACNB1:TGG548TAA (Homo sapiens, UniProt Q02641); assay: as above; conditions: 10 μM
T5 construct: His6 (N); made in house
Source text: as §2

His6-tagged FKBP52 = target: T6, His6-tagged FKBP52 (Homo sapiens, UniProt Q02790); assay: [3H]-FK506 binding on Ni-chelated FLASH plate; conditions: read-out: FKBP 52 (Kd)
T6 construct: made in house
T6 sequence (Q02790 1-459): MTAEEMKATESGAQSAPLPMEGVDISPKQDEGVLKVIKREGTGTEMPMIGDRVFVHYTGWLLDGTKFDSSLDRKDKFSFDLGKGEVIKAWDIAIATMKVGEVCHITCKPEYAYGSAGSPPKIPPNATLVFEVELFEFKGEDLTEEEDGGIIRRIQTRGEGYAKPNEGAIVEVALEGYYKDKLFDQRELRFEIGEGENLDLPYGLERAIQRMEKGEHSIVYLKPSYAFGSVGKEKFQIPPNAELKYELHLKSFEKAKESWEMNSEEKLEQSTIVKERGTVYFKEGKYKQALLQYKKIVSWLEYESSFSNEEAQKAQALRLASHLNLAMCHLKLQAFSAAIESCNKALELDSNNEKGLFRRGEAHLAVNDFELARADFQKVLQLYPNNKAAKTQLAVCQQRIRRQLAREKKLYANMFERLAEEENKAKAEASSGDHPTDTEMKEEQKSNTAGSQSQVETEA
Protocol: (§3) Reactions were carried out in triplicate at 25° C. for 30 min. Kd were calculated using methods described by Carreras (Anal. Biochem. 298, 57-61 (2001)).

His6-tagged FKBP12 = His6-tagged FKBP12 (Homo sapiens, UniProt P62942); assay: [3H]-FK506 binding on Ni-chelated FLASH plate; conditions: read-out: FKBP 12 (Kd)
Protocol: as §3

Human CD4+ T cells = assay: Immunosuppression assay: IL-2 stimulated CD4+ T-cell proliferation; assay type: cell-based; conditions: Homo sapiens, CD4+ T cell
Protocol: Human CD4^+ T cells were purified by negative selection from peripheral blood lymphocytes using RosetteSep as per manufacture's instructions (StemCell Technologies, Inc. Vancouver, British Columbia). Tosyl-activated magnetic microspheres (Dynal, Great Neck, N.Y.) were coated with anti-CD3 Ab (1 μg/10^7 microspheres), and anti-CD28Ab ([…]) as described in Blair et al. J. Immunol., 160:12, 1998. […] Protein-coated microspheres were added to purified CD4+T cells (2×10^6cells/mL, ratio 1 bead: 1 cell) and activated for 72 hours in RPMI, 10% fetal calf serum, 2 mM glutamine media. Cells were harvested, washed, and cultured overnight in fresh media and re-stimulated with IL-2 as described in Bennett et al., J. Immunol. 170:711, 2003. […] Seventy-two hours after culture re-stimulation, plates were pulsed with 1 μCi/well tritiated thymidine and incubated for a 6-16 hour period.

T4 sequence (Q14318 whole entry): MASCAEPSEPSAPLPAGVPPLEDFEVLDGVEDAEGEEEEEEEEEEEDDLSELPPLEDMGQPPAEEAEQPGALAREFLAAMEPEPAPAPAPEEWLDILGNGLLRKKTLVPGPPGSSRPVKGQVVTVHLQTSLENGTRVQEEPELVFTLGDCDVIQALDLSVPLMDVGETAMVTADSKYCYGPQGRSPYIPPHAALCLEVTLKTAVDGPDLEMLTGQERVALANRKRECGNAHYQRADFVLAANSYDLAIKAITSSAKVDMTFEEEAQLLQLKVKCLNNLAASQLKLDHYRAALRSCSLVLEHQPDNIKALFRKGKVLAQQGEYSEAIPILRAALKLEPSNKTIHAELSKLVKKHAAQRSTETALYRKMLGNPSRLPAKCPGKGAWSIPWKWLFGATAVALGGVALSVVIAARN
T5 sequence (Q02641 1-547 limits assumed): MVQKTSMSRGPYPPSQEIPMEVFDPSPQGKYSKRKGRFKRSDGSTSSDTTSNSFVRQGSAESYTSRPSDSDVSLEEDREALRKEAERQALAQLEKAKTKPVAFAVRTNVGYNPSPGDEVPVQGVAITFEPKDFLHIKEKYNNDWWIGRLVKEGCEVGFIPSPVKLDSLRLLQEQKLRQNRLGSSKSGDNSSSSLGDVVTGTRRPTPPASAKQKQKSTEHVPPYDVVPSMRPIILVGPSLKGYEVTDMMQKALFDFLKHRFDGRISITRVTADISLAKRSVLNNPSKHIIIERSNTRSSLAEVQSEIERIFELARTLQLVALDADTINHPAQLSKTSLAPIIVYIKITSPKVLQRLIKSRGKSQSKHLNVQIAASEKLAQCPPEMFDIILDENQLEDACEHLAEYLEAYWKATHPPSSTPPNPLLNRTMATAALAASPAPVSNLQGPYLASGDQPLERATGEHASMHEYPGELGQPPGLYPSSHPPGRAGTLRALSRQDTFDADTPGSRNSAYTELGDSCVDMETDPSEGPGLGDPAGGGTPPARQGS
Sequence of His6-tagged FKBP12 (P62942 whole entry): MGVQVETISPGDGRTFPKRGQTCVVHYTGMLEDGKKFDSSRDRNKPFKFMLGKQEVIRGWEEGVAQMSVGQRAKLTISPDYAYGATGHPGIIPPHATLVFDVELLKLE
T2 sequence (P30405 30-207): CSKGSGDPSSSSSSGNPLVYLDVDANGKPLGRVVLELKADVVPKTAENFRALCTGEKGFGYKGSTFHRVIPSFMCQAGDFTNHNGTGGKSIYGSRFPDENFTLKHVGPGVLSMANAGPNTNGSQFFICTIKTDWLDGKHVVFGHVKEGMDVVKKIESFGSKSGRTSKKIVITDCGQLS
T3 sequence (Q08752 whole entry): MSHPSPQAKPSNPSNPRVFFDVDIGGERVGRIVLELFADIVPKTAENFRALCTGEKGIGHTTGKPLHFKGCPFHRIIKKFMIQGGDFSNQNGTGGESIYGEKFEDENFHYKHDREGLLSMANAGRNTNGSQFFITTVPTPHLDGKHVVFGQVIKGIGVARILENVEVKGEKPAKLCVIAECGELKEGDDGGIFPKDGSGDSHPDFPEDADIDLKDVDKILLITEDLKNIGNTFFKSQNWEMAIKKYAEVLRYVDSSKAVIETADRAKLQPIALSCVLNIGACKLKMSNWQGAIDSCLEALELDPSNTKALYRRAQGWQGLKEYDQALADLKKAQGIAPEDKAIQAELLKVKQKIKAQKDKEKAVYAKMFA

**Q.** How did the “total neurite outgrowth compared to control” value (cortical neurons) turn out when “CACNB1 siRNA: siRNA, sense GGAGAAGUACAAUAAUGACTT (SEQ ID NO:15), antisense GUCAUUAUUGUACUUCUCCTT (SEQ ID NO:16) (chemistry not given here)” was run?
**A.** essentially unchanged

**Q.** And the “percent neuronal survival compared to control” value [1]?
**A.** 80±3 % of control

**Q.** For C=CC[C@@H]1/C=C(\C)C[C@H](C)C[C@H](OC)[C@H]2O[C@@](O)(C(=O)C(=O)N3CCCC[C@H]3C(=O)O[C@H](/C(C)=C/[C@@H]3CC[C@@H](O)[C@H](OC)C3)[C@H](C)[C@@H](O)CC1=O)[C@H](C)C[C@@H]2OC [FK506, reference compound], which “Ca2+ current density” value [2] is on record?
**A.** 2.9+/−0.1 pA/pF

**Q.** And the “decrease of Ca2+ current density vs vehicle” value [2]?
**A.** 55%

**Q.** How did the “binding of [14C]-1 to FKBPs” value (FKBPs) turn out when “9,27-dihydroxy-3-{2-[4-hydroxy-3-methoxycyclohexyl ]-1-methylethyl}-10,21-dimethoxy-6,8,12,14,20,26-hexamethyl-37-phenyl-4,9,10,12,13,14,15,18,21,22,23,24,25,26,27,32,33,34,34a-nonadecahydro-3H-23,27-epoxy-18,15-(epoxyimino)pyrido[2,1-c][1,4]oxazacyclohentriacontine-1,5,11,28,29(6H, 31H)-pentone [Rapamycin analogue I]” was run?
**A.** well

**Q.** What about the “binding of [14C]-Compound 1 to CACNB4” value (CACNB4) of the same molecule?
**A.** negligibly

**Q.** What about the “binding of [14C]-1 to PPIF” value (PPIF) of the same molecule?
**A.** negligibly

**Q.** And the “binding of [14C]-1 to PPID” value (PPID)?
**A.** weakly

**Q.** And the “binding of [14C]-1 to FKBP38/Ca2+/CaM” value (FKBP38/Ca2+/CaM)?
**A.** negligibly

**Q.** And the “binding of [14C]-Compound 1 to mutant His6-CACNB1:TGG548TAA” value (His6-CACNB1:TGG548TAA)?
**A.** weakly

**Q.** CCC(C)(C)C(=O)C(=O)N1CCC[C@H]1C(=O)OCCCc1cccnc1 [GPI-1046, reference compound] was tested. Which Kd (His6-tagged FKBP52) did it give?
**A.** > 12 nM

**Q.** What about the Kd (His6-tagged FKBP12) of the same molecule?
**A.** > 110 nM

**Q.** For CO[C@H]1C[C@@H]2CC[C@@H](C)[C@@](O)(O2)C(=O)C(=O)N2CCCC[C@H]2C(=O)O[C@H]([C@H](C)C[C@@H]2CC[C@@H](O)[C@H](OC)C2)CC(=O)[C@H](C)/C=C(\C)[C@@H](O)[C@@H](OC)C(=O)[C@H](C)C[C@H](C)/C=C/C=C/C=C/1C [Rapamycin, reference compound], which IC50 (Human CD4+ T cells) is on record?
**A.** 5 nM

**Q.** And the Kd (His6-tagged FKBP52)?
**A.** 1.4 ± 0.1 nM

**Q.** How did the “total neurite outgrowth compared to control” value (cortical neurons) turn out when “FKBP52 siRNA: siRNA, sense CCUAGCUAUGCUUUUGGCATT (SEQ ID NO:17), antisense UGCCAAAGCAUAGCUAGGTT (SEQ ID NO:18) (chemistry not given here)” was run?
**A.** 125±12 % of control

**Q.** What about the “percent neuronal survival compared to control” value [1] of the same molecule?
**A.** 112±2 % of control
